Test results from patent US11459547B2, “Method for producing osteoblast cluster using human iPS cells” (priority 2017, dated 2022).
“Also recorded” adds a separate entry of the source.

Legend:
Format in all cases: cell-based
[1] = system: human iPS cell embryoid bodies (409B2); assay: Mesoderm induction ratio by immunofluorescent staining of Brachyury; conditions: embryoid body formation 1 day; mesoderm differentiation induction medium with or free of CHIR99021 or cyclopamine; the label names the compound(s) present; 17% in the absence of both
Description: The immunostaining was pertained using: anti-Brachyury polyclonal antibody (AF2085, R&D SYSTEMS) as a primary antibody; Alexa Fluor594-labeled anti-goat IgG antibody (Thermo Fisher Scientific) as a secondary antibody; and Hoechst 33258 (Thermo Fisher Scientific) for nuclear staining.
The mesoderm induction ratio was determined from the ratio of Brachyury-positive embryoid bodies in all embryoid bodies present in an immunostaining photographic image.

[2] = system: human iPS cell embryoid bodies (409B2); assay: Mesoderm differentiation induction of iPS cell embryoid bodies, immunofluorescent staining of mesodermal marker Brachyury; conditions: embryoid body formation 1 day, then static culture 5 days in mesoderm differentiation induction medium with 30 CHIR99021 and/or 5 cyclopamine; the label names the compound(s) present
Description: The iPS cells were washed with phosphate buffered saline (PBS), and treated with 1 ml of a CTK solution (0.25% trypsin, 0.1 mg/ml collagenase IV, 10 mM CaCl2), 20% KSR) at 37° C. for 1 minute. After that, the CTK solution was removed by aspiration, and 1 ml of PBS was added. PBS was removed, and only the feeder cells exfoliated from the culture plate were removed by aspiration as much as possible. After that, adherent iPS cells remaining in the culture plate were collected using 5 ml of ES medium (RCHEMD001) supplemented with 4 ng/ml FGF. The resultant cell suspension was transferred to a low-attachment culture dish (Thermo Fisher Scientific, Cat. #150239), and subjected to static culture for 1 day to induce the formation of embryoid bodies. As a control, the formation of embryoid bodies was performed for 0 days or 4 days.
After static culture had been performed for 1 day, iPS cell embryoid bodies were collected. […] As a control, osteoblastic differentiation induction described in (1-4) was performed after the embryoid body formation described in (1-2) without mesoderm differentiation induction. For the evaluation of mesoderm differentiation induction, immunofluorescent staining using a mesodermal marker Brachyury was performed.

[3] = system: human iPS cell-derived mesoderm cell constructs; assay: Osteoblastic differentiation induction with small-molecule compound, histochemical observation of mineralization (von Kossa)
Description: As a control, non-adherent culture was performed without shaking. The medium was changed every 7 days. The resultant sample was subjected to immunofluorescent staining, specifically hematoxylin and eosin (H&E) staining, von Kossa staining, or Osteocalcin, and subjected to histochemical observation.

[4] = system: human iPS cell embryoid bodies; assay: Comparative Example: retinoic acid culture instead of mesoderm induction, then osteoblastic differentiation induction; shape of cell construct; conditions: ES medium 2 days, then 2 days with 1 µM retinoic acid, then osteoblastic differentiation induction without mesoderm induction step
Description: iPS cells were obtained in accordance with the method described in (1-1) above, and subjected to culture in an ES medium corresponding to (1-2) above for 2 days. The resultant embryoid bodies of the iPS cells were collected, and further cultured for 2 days using the above-mentioned ES medium having blended therein 1 µM retinoic acid (all-trans retinoic acid: Sigma). After that, the step of inducing differentiation into osteoblasts described in (1-4) above was performed without the step of inducing differentiation into mesoderm cells described in (1-3) above.

SMILES: Cc1c[nH]c(-c2cnc(NCCNc3ccc(C#N)cn3)nc2-c2ccc(Cl)cc2Cl)n1 [CHIR99021]
- mesoderm induction ratio (ratio of Brachyury-positive embryoid bodies in all embryoid bodies) [1]: 57%
- expression of the mesodermal marker (Brachyury), immunofluorescent staining [2]: marked expression of Brachyury was similarly found

SMILES: CC(=O)N(O)CCCCCNC(=O)CCC(=O)N(O)CCCCCNC(=O)CCC(=O)N(O)CCCCCN [desferrioxamine]
- mineralization of cell construct on day 30 ([3]; day 30 of the osteoblastic differentiation induction, 10 μM desferrioxamine): markedly mineralized cell construct
- mineralization of osteoblast construct ([3]; osteoblastic differentiation induction medium supplemented with 10 μM desferrioxamine or 1 μM simvastatin, non-adherent shaking culture): markedly mineralized osteoblast construct

SMILES: CC1=C(/C=C/C(C)=C/C=C/C(C)=C/C(=O)O)C(C)(C)CCC1 [retinoic acid, all-trans retinoic acid]
- shape of resultant osteoblast-like cell construct [4]: not solid cell constructs, but were bag-like; also recorded: hollow bag-like (sac-like) shape

SMILES: CC1=C2C[C@H]3[C@@H](CC=C4C[C@@H](O)CC[C@@]43C)[C@@H]2CC[C@]12O[C@@H]1C[C@H](C)CN[C@H]1[C@H]2C [cyclopamine]
- expression of the mesodermal marker (Brachyury), immunofluorescent staining [2]: the expression of Brachyury was found, though not as marked as in the presence of CHIR99021
